Measurements reported in patent publication US11759462B2, “Spirocyclic compounds as tryptophan hydroxylase inhibitors” (priority 2013, dated 2023).

These molecules were tested against T1, Recombinant human TPH1 (MBP tagged) (Homo sapiens, UniProt P17752) (assay: TPH1 in vitro inhibition assay (kinetic fluorescence)). Conditions: TPH1 Range (TPH1 inhibition IC50).
T1 construct: cloning full length human TPH1 cDNA in to a bacterial pMAL-c5E expression vector; made in house; host or cells: E. coli BL21 (DE3)
T1 sequence (P17752 1-444): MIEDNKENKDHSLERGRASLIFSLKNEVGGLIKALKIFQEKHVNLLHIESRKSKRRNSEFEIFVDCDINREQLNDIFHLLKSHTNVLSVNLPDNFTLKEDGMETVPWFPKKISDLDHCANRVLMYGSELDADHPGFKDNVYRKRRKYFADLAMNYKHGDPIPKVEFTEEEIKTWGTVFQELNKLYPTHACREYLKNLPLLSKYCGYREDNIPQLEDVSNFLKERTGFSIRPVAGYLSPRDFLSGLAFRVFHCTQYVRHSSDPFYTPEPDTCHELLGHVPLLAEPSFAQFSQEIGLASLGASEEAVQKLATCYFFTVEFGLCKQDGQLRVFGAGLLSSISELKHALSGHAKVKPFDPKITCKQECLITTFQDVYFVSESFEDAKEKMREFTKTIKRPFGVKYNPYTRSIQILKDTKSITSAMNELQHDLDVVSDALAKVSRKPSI
Assay type: biochemical
Procedure, shortened: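 Final mix: 15 nM MBP-TPH1, 30 μM Trp, 36 μM 6-methyltetrahydropterin, 25 μM ferrous ammonium sulfate, 50 mM MES pH 7.1, 1% DMSO, room temperature.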

| IC50 | SMILES |
| --- | --- |
| 0.05 to 0.3 µM | Nc1nc(O[C@H](c2ccc(Cl)cc2-c2cccnc2)C(F)(F)F)cc(N2CCC3(CC2)CN[C@H](C(=O)O)C3)n1 [Example 34bo, (S)-8-(2-amino-6-((R)-1-(4-chloro-2-(pyridin-3-yl)phenyl)-2,2,2-trifluoroethoxy)pyrimidin-4-yl)-2,8-diazaspiro[4.5]decane-3-carboxylic acid] |
| 0.05 to 0.3 µM | CC(C)(C)c1cccc(-c2cc(Cl)ccc2[C@@H](Oc2cc(N3CCC4(CC3)CN[C@H](C(=O)O)C4)nc(N)n2)C(F)(F)F)c1 [Example 34bq, (S)-8-(2-amino-6-((R)-1-(3′-(tert-butyl)-5-chloro-[1,1′-biphenyl]-2-yl)-2,2,2-trifluoroethoxy)pyrimidin-4-yl)-2,8-diazaspiro[4.5]decane-3-carboxylic acid] |
| 0.05 to 0.3 µM | Nc1nc(O[C@H](c2ccc(Cl)cc2-c2ccc(Cl)cc2)C(F)(F)F)cc(N2CCC3(CC2)CN[C@H](C(=O)O)C3)n1 [Example 34bw, (S)-8-(2-amino-6-((R)-1-(4′,5-dichloro-[1,1′-biphenyl]-2-yl)-2,2,2-trifluoroethoxy)pyrimidin-4-yl)-2,8-diazaspiro[4.5]decane-3-carboxylic acid] |

| SMILES | IC50 |
| --- | --- |
| Nc1nc(O[C@H](c2ccc(Cl)cc2-c2ccccc2)C(F)(F)F)cc(N2CCC3(CC2)CN[C@H](C(=O)O)C3)n1 [Example 34c, (S)-8-(2-amino-6-((R)-1-(5-chloro-[1,1′-biphenyl]-2-yl)-2,2,2-trifluoroethoxy)pyrimidin-4-yl)-2,8-diazaspiro[4.5]decane-3-carboxylic acid] | 0.05 to 0.3 µM |

Same assay, conditions: read-out: TPH1 Range (TPH1 inhibition IC50)

| SMILES | IC50 |
| --- | --- |
| Nc1nc(O[C@H](c2ccc(Cl)cc2-c2cc(C(F)(F)F)cc(C(F)(F)F)c2)C(F)(F)F)cc(N2CCC3(CC2)CN[C@H](C(=O)O)C3)n1 [Example 34bh, (S)-8-(2-amino-6-((R)-1-(5-chloro-3′,5′-bis(trifluoromethyl)-[1,1′-biphenyl]-2-yl)-2,2,2-trifluoroethoxy)pyrimidin-4-yl)-2,8-diazaspiro[4.5]decane-3-carboxylic acid] | 0.3 to 3 µM |
| Cc1cc(-c2cc(Cl)ccc2[C@@H](Oc2cc(N3CCC4(CC3)CN[C@H](C(=O)O)C4)nc(N)n2)C(F)(F)F)cc(C(C)(C)C)c1 [Example 34bm, (S)-8-(2-amino-6-((R)-1-(3′-(tert-butyl)-5-chloro-5′-methyl-[1,1′-biphenyl]-2-yl)-2,2,2-trifluoroethoxy)pyrimidin-4-yl)-2,8-diazaspiro[4.5]decane-3-carboxylic acid] | 0.05 to 0.3 µM |
| Cc1ccc(-c2cc(Cl)ccc2[C@@H](Oc2cc(N3CCC4(CC3)CN[C@H](C(=O)O)C4)nc(N)n2)C(F)(F)F)cc1F [Example 34bn, (S)-8-(2-amino-6-((R)-1-(5-chloro-3′-fluoro-4′-methyl-[1,1′-biphenyl]-2-yl)-2,2,2-trifluoroethoxy)pyrimidin-4-yl)-2,8-diazaspiro[4.5]decane-3-carboxylic acid] | 0.05 to 0.3 µM |
| CC(C)c1cc(-c2cc(Cl)ccc2[C@@H](Oc2cc(N3CCC4(CC3)CN[C@H](C(=O)O)C4)nc(N)n2)C(F)(F)F)ccn1 [Example 34bu, (S)-8-(2-amino-6-((R)-1-(4-chloro-2-(2-isopropylpyridin-4-yl)phenyl)-2,2,2-trifluoroethoxy)pyrimidin-4-yl)-2,8-diazaspiro[4.5]decane-3-carboxylic acid] | 0.05 to 0.3 µM |
| Nc1nc(O[C@H](c2ccc(Cl)cc2-c2ccc(F)cc2)C(F)(F)F)cc(N2CCC3(CC2)CN[C@H](C(=O)O)C3)n1 [Example 34bv, (S)-8-(2-amino-6-((R)-1-(5-chloro-4′-fluoro-[1,1′-biphenyl]-2-yl)-2,2,2-trifluoroethoxy)pyrimidin-4-yl)-2,8-diazaspiro[4.5]decane-3-carboxylic acid] | 0.05 to 0.3 µM |
| Cc1ccc(-c2cc(Cl)ccc2[C@@H](Oc2cc(N3CCC4(CC3)CN[C@H](C(=O)O)C4)nc(N)n2)C(F)(F)F)cc1 [Example 34bx, (S)-8-(2-amino-6-((R)-1-(5-chloro-4′-methyl-[1,1′-biphenyl]-2-yl)-2,2,2-trifluoroethoxy)pyrimidin-4-yl)-2,8-diazaspiro[4.5]decane-3-carboxylic acid] | 0.05 to 0.3 µM |
| Nc1nc(O[C@H](c2ccc(Cl)cc2C2=CCCCC2)C(F)(F)F)cc(N2CCC3(CC2)CN[C@H](C(=O)O)C3)n1 [Example 34by, (S)-8-(2-amino-6-((R)-1-(5-chloro-2′,3′,4′,5′-tetrahydro-[1,1′-biphenyl]-2-yl)-2,2,2-trifluoroethoxy)pyrimidin-4-yl)-2,8-diazaspiro[4.5]decane-3-carboxylic acid] | 0.05 to 0.3 µM |
| Nc1nc(O[C@H](c2ccc(Cl)cc2-c2cccc(C(=O)N3CCCC3)c2)C(F)(F)F)cc(N2CCC3(CC2)CN[C@H](C(=O)O)C3)n1 [Example 34ca, (S)-8-(2-amino-6-((R)-1-(5-chloro-3′-(pyrrolidine-1-carbonyl)-[1,1′-biphenyl]-2-yl)-2,2,2-trifluoroethoxy)pyrimidin-4-yl)-2,8-diazaspiro[4.5]decane-3-carboxylic acid] | 0.05 to 0.3 µM |
| Nc1nc(O[C@H](c2ccc(Cl)cc2-c2cccc(OC3CCCC3)c2)C(F)(F)F)cc(N2CCC3(CC2)CN[C@H](C(=O)O)C3)n1 [Example 34cb, (S)-8-(2-amino-6-((R)-1-(5-chloro-3′-(cyclopentyloxy)-[1,1′-biphenyl]-2-yl)-2,2,2-trifluoroethoxy)pyrimidin-4-yl)-2,8-diazaspiro[4.5]decane-3-carboxylic acid] | 0.05 to 0.3 µM |

Second part, the molecule after the results:

| IC50 | SMILES |
| --- | --- |
| < 0.05 µM | Cc1cc(-c2cc(Cl)ccc2[C@@H](Oc2cc(N3CCC4(CC3)CN[C@H](C(=O)O)C4)nc(N)n2)C(F)(F)F)ccc1F [Example 34bd, (S)-8-(2-amino-6-((R)-1-(5-chloro-4′-fluoro-3′-methyl-[1,1′-biphenyl]-2-yl)-2,2,2-trifluoroethoxy)pyrimidin-4-yl)-2,8-diazaspiro[4.5]decane-3-carboxylic acid] |
| < 0.05 µM | Cc1cc(Cl)cc(-c2cc(Cl)ccc2[C@@H](Oc2cc(N3CCC4(CC3)CN[C@H](C(=O)O)C4)nc(N)n2)C(F)(F)F)c1 [Example 34be, (S)-8-(2-amino-6-((R)-1-(3′,5-dichloro-5′-methyl-[1,1′-biphenyl]-2-yl)-2,2,2-trifluoroethoxy)pyrimidin-4-yl)-2,8-diazaspiro[4.5]decane-3-carboxylic acid] |
| 0.05 to 0.3 µM | Nc1nc(O[C@H](c2ccc(Cl)cc2-c2cc(F)c(F)c(F)c2)C(F)(F)F)cc(N2CCC3(CC2)CN[C@H](C(=O)O)C3)n1 [Example 34bf, (S)-8-(2-amino-6-((R)-1-(5-chloro-3′,4′,5′-trifluoro-[1,1′-biphenyl]-2-yl)-2,2,2-trifluoroethoxy)pyrimidin-4-yl)-2,8-diazaspiro[4.5]decane-3-carboxylic acid] |
| 0.05 to 0.3 µM | Nc1nc(O[C@H](c2ccc(Cl)cc2-c2cccc(OC(F)(F)F)c2)C(F)(F)F)cc(N2CCC3(CC2)CN[C@H](C(=O)O)C3)n1 [Example 34bg, (S)-8-(2-amino-6-((R)-1-(5-chloro-3′-(trifluoromethoxy)-[1,1′-biphenyl]-2-yl)-2,2,2-trifluoroethoxy)pyrimidin-4-yl)-2,8-diazaspiro[4.5]decane-3-carboxylic acid] |
| < 0.05 µM | CC(C)c1cccc(-c2cc(Cl)ccc2[C@@H](Oc2cc(N3CCC4(CC3)CN[C@H](C(=O)O)C4)nc(N)n2)C(F)(F)F)c1 [Example 34bi, (S)-8-(2-amino-6-((R)-1-(5-chloro-3′-isopropyl-[1,1′-biphenyl]-2-yl)-2,2,2-trifluoroethoxy)pyrimidin-4-yl)-2,8-diazaspiro[4.5]decane-3-carboxylic acid] |
| < 0.05 µM | Nc1nc(O[C@H](c2ccc(Cl)cc2-c2cc(Cl)cc(Cl)c2)C(F)(F)F)cc(N2CCC3(CC2)CN[C@H](C(=O)O)C3)n1 [Example 34bj, (S)-8-(2-amino-6-((R)-2,2,2-trifluoro-1-(3′,5,5′-trichloro-[1,1′-biphenyl]-2-yl)ethoxy)pyrimidin-4-yl)-2,8-diazaspiro[4.5]decane-3-carboxylic acid] |
| 0.05 to 0.3 µM | Nc1nc(O[C@H](c2ccc(Cl)cc2-c2ccc(F)c(C(F)(F)F)c2)C(F)(F)F)cc(N2CCC3(CC2)CN[C@H](C(=O)O)C3)n1 [Example 34bk, (S)-8-(2-amino-6-((R)-1-(5-chloro-4′-fluoro-3′-(trifluoromethyl)-[1,1′-biphenyl]-2-yl)-2,2,2-trifluoroethoxy)pyrimidin-4-yl)-2,8-diazaspiro[4.5]decane-3-carboxylic acid] |
| 0.05 to 0.3 µM | CC(C)Oc1cc(F)cc(-c2cc(Cl)ccc2[C@@H](Oc2cc(N3CCC4(CC3)CN[C@H](C(=O)O)C4)nc(N)n2)C(F)(F)F)c1 [Example 34bl, (S)-8-(2-amino-6-((R)-1-(5-chloro-3′-fluoro-5′-isopropoxy-[1,1′-biphenyl]-2-yl)-2,2,2-trifluoroethoxy)pyrimidin-4-yl)-2,8-diazaspiro[4.5]decane-3-carboxylic acid] |
| < 0.05 µM | CCOc1cc(-c2cc(Cl)ccc2[C@@H](Oc2cc(N3CCC4(CC3)CN[C@H](C(=O)O)C4)nc(N)n2)C(F)(F)F)ccc1F [Example 34bp, (S)-8-(2-amino-6-((R)-1-(5-chloro-3′-ethoxy-4′-fluoro-[1,1′-biphenyl]-2-yl)-2,2,2-trifluoroethoxy)pyrimidin-4-yl)-2,8-diazaspiro[4.5]decane-3-carboxylic acid] |
